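Five concentrations, 48 hours, 96-well plates. Here, GI50 denotes the concentration required for 50% inhibition of growth.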 Calls of active or inactive are those of the source. No stated cut-off is given here; in the data, active = GI50 up to about 1.1 µM and inactive = higher.
Legend:
Assay in all cases: NCI-60 cell line screen, 48 h
786-0 = system: 786-0
A549 = system: A549
ACHN = system: ACHN
HCC 2998 = system: HCC 2998
HOP-62 = system: HOP-62
HOP-92 = system: HOP-92
K562 = system: K562
LOX IMVI = system: LOX IMVI
M14 = system: M14
MOLT-4 = system: MOLT-4
Malme-3M = system: Malme-3M
OVCAR-4 = system: OVCAR-4
OVCAR-5 = system: OVCAR-5
SF-295 = system: SF-295
SK-MEL-2 = system: SK-MEL-2
SNB-19 = system: SNB-19
UO-31 = system: UO-31
NCI/ADR-RES = system: NCI/ADR-RES
PC-3 = system: PC-3

| Structure (SMILES) | GI50 (786-0) | GI50 (A549) | GI50 (ACHN) | GI50 (HCC 2998) | GI50 (HOP-62) | GI50 (HOP-92) | GI50 (K562) | GI50 (LOX IMVI) | GI50 (M14) | GI50 (MOLT-4) | GI50 (Malme-3M) | GI50 (OVCAR-4) | GI50 (OVCAR-5) | GI50 (SF-295) | GI50 (SK-MEL-2) | GI50 (SNB-19) | GI50 (UO-31) | GI50 (NCI/ADR-RES) | GI50 (PC-3) |
| --- | --- | --- | --- | --- | --- | --- | --- | --- | --- | --- | --- | --- | --- | --- | --- | --- | --- | --- | --- |
| OC1OC2COC(c3ccccc3)OC2C(O)C1O (stereo not drawn) | > 100 µM (inactive) | > 100 µM (inactive) | > 100 µM (inactive) | > 100 µM (inactive) | > 100 µM (inactive) | > 100 µM (inactive) | > 100 µM (inactive) | > 100 µM (inactive) | > 100 µM (inactive) | > 100 µM (inactive) | > 100 µM (inactive) | > 100 µM (inactive) | > 100 µM (inactive) | > 100 µM (inactive) | > 100 µM (inactive) | > 100 µM (inactive) | > 100 µM (inactive) | – | – |
| O=C(/C=C/c1ccc(Cl)cc1)c1cccs1 | 15 µM (inactive) | 29.1 µM (inactive) | 20 µM (inactive) | 18.6 µM (inactive) | 26.5 µM (inactive) | – | 4.03 µM (inactive) | 11.4 µM (inactive) | 20.9 µM (inactive) | 15.7 µM (inactive) | 16.6 µM (inactive) | > 10 µM (inactive) | – | 20 µM (inactive) | 24.5 µM (inactive) | 18.2 µM (inactive) | 18 µM (inactive) | 24.3 µM (inactive) | 18.2 µM (inactive) |
| COc1ccc(Br)c(C(=O)N2CCc3ccccc32)c1N | 42.4 µM (inactive) | 59.6 µM (inactive) | 49 µM (inactive) | 30 µM (inactive) | 42.3 µM (inactive) | > 100 µM (inactive) | 30.2 µM (inactive) | 93.1 µM (inactive) | 32.9 µM (inactive) | 31.3 µM (inactive) | 66.4 µM (inactive) | 34.8 µM (inactive) | > 100 µM (inactive) | 46.2 µM (inactive) | 25.1 µM (inactive) | 63 µM (inactive) | 33.8 µM (inactive) | – | – |
| CCC1(O)CC(OC2CC(N(C)C)C(OC3CC(O)C(OC4OC(C)C(=O)C=C4N)C(C)O3)C(C)O2)c2c(cc3c(c2O)C(=O)c2c(O)cccc2C3=O)C1C(=O)OC (stereo not drawn) | 0.00254 µM (active) | 0.00272 µM (active) | 0.0206 µM (active) | 0.0153 µM (active) | 0.0184 µM (active) | 0.0746 µM (active) | < 0.001 µM (active) | 0.046 µM (active) | 0.0345 µM (active) | 0.0015 µM (active) | 0.0508 µM (active) | 0.01 µM (active) | 0.0678 µM (active) | 0.0016 µM (active) | 0.0221 µM (active) | 0.0282 µM (active) | 0.167 µM (active) | 1.25 µM (inactive) | 0.00566 µM (active) |
| C=C(C)C1CC=C(C)C(=O)C1 (stereo not drawn) [CARVONE] | > 100 µM (inactive) | > 100 µM (inactive) | > 100 µM (inactive) | > 100 µM (inactive) | > 100 µM (inactive) | > 100 µM (inactive) | > 100 µM (inactive) | > 100 µM (inactive) | > 100 µM (inactive) | > 100 µM (inactive) | > 100 µM (inactive) | > 100 µM (inactive) | > 100 µM (inactive) | > 100 µM (inactive) | > 100 µM (inactive) | > 100 µM (inactive) | > 100 µM (inactive) | > 100 µM (inactive) | > 100 µM (inactive) |
| Ic1ncnc2c1ncn2C1CCCO1 (stereo not drawn) | > 100 µM (inactive) | > 100 µM (inactive) | > 100 µM (inactive) | > 100 µM (inactive) | > 100 µM (inactive) | > 100 µM (inactive) | > 100 µM (inactive) | > 100 µM (inactive) | > 100 µM (inactive) | > 100 µM (inactive) | > 100 µM (inactive) | > 100 µM (inactive) | > 100 µM (inactive) | > 100 µM (inactive) | > 100 µM (inactive) | > 100 µM (inactive) | > 100 µM (inactive) | – | – |
| C[N+]1(C)C/C(=C/c2ccc(F)cc2)C(=O)/C(=C\c2ccc(F)cc2)C1 | 49.4 µM (inactive) | 74 µM (inactive) | > 100 µM (inactive) | > 100 µM (inactive) | > 100 µM (inactive) | > 100 µM (inactive) | 28.2 µM (inactive) | > 100 µM (inactive) | > 100 µM (inactive) | 15.4 µM (inactive) | 42.1 µM (inactive) | > 100 µM (inactive) | > 100 µM (inactive) | 50.6 µM (inactive) | 56.8 µM (inactive) | 49.3 µM (inactive) | > 100 µM (inactive) | – | – |
| C[C@@H](c1ccccc1)N1CO[C@@]2(C#Cc3ccc4c(c3)OCO4)CCC[C@@H]12 | 17.8 µM (inactive) | 14.8 µM (inactive) | > 100 µM (inactive) | 17.9 µM (inactive) | 15.8 µM (inactive) | 5.3 µM (inactive) | 13.8 µM (inactive) | 12.7 µM (inactive) | 14.8 µM (inactive) | 9.59 µM (inactive) | – | 13.8 µM (inactive) | 18.1 µM (inactive) | 14.9 µM (inactive) | 18.3 µM (inactive) | 16.1 µM (inactive) | 14.4 µM (inactive) | 14.7 µM (inactive) | 12.4 µM (inactive) |
| O=C(/C=C/c1ccccc1O)C(c1ccccc1)c1ccccc1 | 51.1 µM (inactive) | > 100 µM (inactive) | > 100 µM (inactive) | > 100 µM (inactive) | > 100 µM (inactive) | > 100 µM (inactive) | 78.5 µM (inactive) | 24.1 µM (inactive) | > 100 µM (inactive) | > 100 µM (inactive) | > 100 µM (inactive) | 48.5 µM (inactive) | > 100 µM (inactive) | > 100 µM (inactive) | > 100 µM (inactive) | > 100 µM (inactive) | > 100 µM (inactive) | – | – |
| CC(C)=CCCC1(C)C=Cc2c(c(C)cc3c2[nH]c2cc(O)ccc23)O1 (stereo not drawn) | > 25 µM (inactive) | > 25 µM (inactive) | > 25 µM (inactive) | > 25 µM (inactive) | > 25 µM (inactive) | > 25 µM (inactive) | > 25 µM (inactive) | > 25 µM (inactive) | > 25 µM (inactive) | > 25 µM (inactive) | > 25 µM (inactive) | 22.7 µM (inactive) | > 25 µM (inactive) | – | > 25 µM (inactive) | > 25 µM (inactive) | > 25 µM (inactive) | – | – |
| CC(C)(C)c1ccc2c(c1)S(=O)(=O)Nc1cccc(c1)NS(=O)(=O)c1cc(C(C)(C)C)ccc1OCCOCCO2 | > 100 µM (inactive) | > 100 µM (inactive) | > 100 µM (inactive) | > 100 µM (inactive) | > 100 µM (inactive) | 50.6 µM (inactive) | > 100 µM (inactive) | > 100 µM (inactive) | > 100 µM (inactive) | > 100 µM (inactive) | > 100 µM (inactive) | > 100 µM (inactive) | > 100 µM (inactive) | > 100 µM (inactive) | > 100 µM (inactive) | > 100 µM (inactive) | > 100 µM (inactive) | – | – |
| C#CCn1c(=O)[nH]c(=O)c2cccnc21 | > 100 µM (inactive) | > 100 µM (inactive) | > 100 µM (inactive) | > 100 µM (inactive) | > 100 µM (inactive) | > 100 µM (inactive) | – | > 100 µM (inactive) | > 100 µM (inactive) | > 100 µM (inactive) | > 100 µM (inactive) | > 100 µM (inactive) | > 100 µM (inactive) | > 100 µM (inactive) | > 100 µM (inactive) | > 100 µM (inactive) | – | – | – |
| Cn1c(=O)c2nc3sc4ccccc4c(=N)n3c2n(C)c1=O | > 100 µM (inactive) | > 100 µM (inactive) | > 100 µM (inactive) | > 100 µM (inactive) | > 100 µM (inactive) | > 100 µM (inactive) | > 100 µM (inactive) | > 100 µM (inactive) | – | > 100 µM (inactive) | > 100 µM (inactive) | > 100 µM (inactive) | > 100 µM (inactive) | > 100 µM (inactive) | > 100 µM (inactive) | > 100 µM (inactive) | > 100 µM (inactive) | – | – |
| c1ccc2c(c1)C1=NCCN1c1ccccc1-2 | 2.6 µM (inactive) | 3.97 µM (inactive) | 2.11 µM (inactive) | 4.46 µM (inactive) | 3.25 µM (inactive) | 4.45 µM (inactive) | – | 2.95 µM (inactive) | 4.01 µM (inactive) | 1.85 µM (inactive) | 2.64 µM (inactive) | 2.91 µM (inactive) | 3.47 µM (inactive) | 5.09 µM (inactive) | 3.19 µM (inactive) | 3.46 µM (inactive) | 2.77 µM (inactive) | – | – |
| CC(C)[Si](Oc1cc2c3c(ccc2c(O)c1[C@@H](C)CO[Si](C)(C)C(C)(C)C)C(C)(C)CCC3)(C(C)C)C(C)C | > 100 µM (inactive) | > 100 µM (inactive) | > 100 µM (inactive) | – | > 100 µM (inactive) | > 100 µM (inactive) | 43.7 µM (inactive) | 64.4 µM (inactive) | > 100 µM (inactive) | 29.9 µM (inactive) | 22.6 µM (inactive) | > 100 µM (inactive) | > 100 µM (inactive) | 92.3 µM (inactive) | > 100 µM (inactive) | > 100 µM (inactive) | > 100 µM (inactive) | > 100 µM (inactive) | 74.6 µM (inactive) |
| CCOc1ccccc1NC(=O)CCC(=O)NN | > 100 µM (inactive) | > 100 µM (inactive) | > 100 µM (inactive) | > 100 µM (inactive) | > 100 µM (inactive) | > 100 µM (inactive) | > 100 µM (inactive) | > 100 µM (inactive) | > 100 µM (inactive) | > 100 µM (inactive) | > 100 µM (inactive) | > 100 µM (inactive) | > 100 µM (inactive) | > 100 µM (inactive) | > 100 µM (inactive) | > 100 µM (inactive) | > 100 µM (inactive) | – | – |
